# Patent US6525042B1 (Daiichi Pharmaceutical Co., Ltd., priority 1997, dated 2003)
# Columns and labels:
# human FXa [1] = target: T1, human FXa (Homo sapiens, UniProt P00742); test: FXa inhibitory action (IC50), end point method; format: biochemical; settings: 37° C. for 15 minutes, read-out: FXa 50% inhibitory concentration
# T1 construct: purchased Cosmobio-ERL HFXa-1011
# Description: (§1) Measurement of FXa Inhibitory Action (IC50)
# A sample solution (100 μl), 280 μl of a 100 mM tris −200 mM sodium chloride (pH 7.4) buffer and 100 μl of a 1 mM S2222 (Chromogenix Corp.) solution were mixed and heated at 37° C. To the resulting mixture, 20 μl of 0.625 U/ml human FXa (“Cosmobio-ERL HFXa-1011”, dissolved in and diluted with a measuring buffer) were added, followed by heating at 37° C. for 15 minutes. To the resulting mixture, 100 μl of 1M citric acid were added and then, the absorbance at 405 nm was measured. The mixture to which only the diluting solvent for the sample was added instead of the sample was used as a blank, while the mixture to which 1M citric acid was added prior to the addition of FXa was used as a control. The concentration of the sample (IC50) at which 50% of FXa activity was inhibited was determined and it was designated as an index of FXa inhibitory action.
# human thrombin [2] = target: T2, human thrombin (Homo sapiens, UniProt P00734); test: Thrombin inhibitory action (IC50), reaction rate method; format: biochemical; settings: room temperature, read-out: thrombin 50% inhibitory concentration
# T2 construct: purchased Sigma Chemical
# Description: (§2) Measurement of Thrombin Inhibitory Action (IC50)
# In a 96-well microtiter plate, 10 μl of a sample solution, 40 μl of a 100 mM tris −200 mM sodium chloride −0.2% BSA (pH: 7.4) buffer and 10 μl of 4 U/ml human thrombin (Sigma Chemical, dissolved in and diluted with a measuring buffer) were poured, followed by the addition of 40 μl of 500 μM S2266 (product of Chromogenix). An increase (mOD/min) in the absorbance at 405 nm was measured at room temperature. From the below-described equation, an inhibitory ratio % of each sample was determined. On a logarithmic probability paper, the final concentration of the sample and inhibitory ratio were plotted along the abscissa and the ordinate, respectively, whereby a 50% inhibitory concentration (IC50) was found.
# (§3) Inhibitory ratio (%)=(1−OD of sample÷OD of control)×100
# [3] = test system: tissue thromboplastin-derived rat DIC model; test: Anti-thrombus effects in a tissue thromboplastin-derived rat DIC model; format: in vivo; settings: oral 30 mg/kg, tissue thromboplastin one hour after the sample
# Description: Testing Method of Anti-thrombus Effects in a Tissue Thromboplastin-derived Rat DIC Model
# A rat was anesthetized with halothane. After the collection of the blood (for measurement of the number of platelets, anti-FXa activity and TAT) from its cervical vein by using 1/10 part by weight of 3.13% (w/v) sodium citrate, the sample was administered orally. At an appropriate time after the administration, the rat was intraperioneally anesthetized (1 mg/kg) with Nembutal (50 mg/ml pentobarbital sodium, Abott Laboratories), followed by intravenous drip of 0.2 U/ml of tissue thromboplastin (Thromboplastin C plus, Dade Diagnostics of P. R. Inc.,) from the femoral vein for one minute at a rate of 2.5 to 3.0 ml/kg/min. The blood was collected (for measuring the number of platelets and anti-FXa activity) from the cervical vein 10 minutes after the intravenous drip and the blood was collected (for measuring TAT) from the cervical vein 20 minutes after the blood collection. The number of platelets, anti-FXa activity in the plasma and TAT concentration of each blood sample were measured. The number of the platelets was measured by an automatic cytometer, while the anti-FXa activity in the plasma was measured in a similar manner to that described in Test 7.
# For the measurement of TAT (Thrombin-anti Thrombin=complex), EnzygnostR TAT micro kit (Boering Verke) was employed.
# human FXa [4] = target: T1, human FXa; test: Measurement of Ki value against FXa; format: biochemical; settings: substrate S2222, Dixon plot
# Description: Measurement of Ki Value Against FXa
# In a 96-well microtiter plate, 5 μl of a sample solution, 5 μl of purified water, 40 μl of a 100 mM tris −200 mM sodium chloride −0.2% BSA (pH: 7.4) buffer and 10 μl of 0.05 U/ml human FXa (product of Enzyme Research, dissolved in and diluted with a measuring buffer) were poured, followed by the addition of 40 μl of S2222 (product of Chromogenix, final concentration: 75, 150, 300 and 600 μM). […] The median of six values available by solving simultaneous equations was designated as a Ki value.
# human thrombin [5] = target: T2, human thrombin; test: Measurement of Ki value against thrombin; format: biochemical; settings: Dixon plot
# Description: Measurement of Ki Value Against Thrombin
# In a 96-well microtiter plate, 5 μl of a sample solution, 5 μl of purified water, 40 μl of a 100 mM tris −200 mM sodium chloride −0.2% BSA (pH: 7.4) buffer and 10 μl of 5 U/ml human thrombin (product of Sigma Chemical, dissolved in and diluted with a measuring buffer) were poured in portions, followed by the addition of 40 μl of S2226 (product of Chromogenix, final concentration: 50, 100, 200 and 400 μM). […] The median of six values available by solving simultaneous equations was designated as a Ki value.
# human thrombin [6] = target: T2, human thrombin; test: Thrombin inhibitory action (IC50), end point method; format: biochemical; settings: 37° C. for 10 minutes, read-out: thrombin 50% inhibitory concentration
# Description: as §2
# A sample solution (100 μl), 280 μl of a 100 mM tris −200 mM sodium chloride (pH 7.4) buffer and 100 μl of 1 mM S2238 (Chromogenix) solution were mixed and heated at 37° C. To the resulting mixture, 20 μl of 1 U/ml human thrombin (Sigma Chemical, dissolved in and diluted with a measuring buffer) were added, followed by heating at 37° C. for 10 minutes. To the resulting mixture, 100 μl of 1M citric acid were added and then, the absorbance at 405 nm was measured. The mixture to which only the diluting solvent was added instead of the sample was used as a blank, while the mixture to which 1M citric acid was added prior to the addition of thrombin was used as a control. The sample concentration (IC50) at which 50% of thrombin activity was inhibited was found and it was designated as an index of thrombin inhibitory action.
# human FXa [7] = target: T1, human FXa; test: FXa inhibitory action (IC50), reaction rate method; format: biochemical; settings: room temperature, read-out: FXa 50% inhibitory concentration
# Description: as §1
# In a 96-well microtiter plate, 10 μl of a sample solution, 40 μl of a 100 mM tris −200 mM sodium chloride −0.2% BSA (pH: 7.4) buffer and 10 μl of 0.05 U/ml human FXa (“Cosmobio-ERL HFXa-1011”, dissolved in and diluted with a measuring buffer) were poured in portions, followed by the addition of […] of S2222 (product of Chromogenix). An increase (mOD/min) in the absorbance at 405 nm was measured at room temperature. From the below-described equation, an inhibitory ratio % of each sample was determined. On a logarithmic probability paper, the final concentration of the sample and inhibitory ratio % were plotted along the abscissa and the ordinate, respectively, whereby a 50% inhibitory concentration (IC50) was determined.
# as §3
# Plasma [8] = test: Coagulation extending action (prothrombin time) in plasma; format: biochemical
# Description: Measurement of Coagulation Extending Action (Measurement of Prothrombin Time)
# Plasma (20 μl) and 20 μl of a sample solution were mixed. To the resulting mixture, […] of cynplastin (product of Organon Teknika) were added and the coagulation time was measured. The concentration of the sample (CT2) at which the coagulation time of the plasma was increased twice was found and it was designated as an index of anticoagulant action.
# human Factor Xa = human Factor Xa (Homo sapiens, UniProt P00742); test: Oral administration test: anti-FXa activity in the plasma; format: in vivo; settings: rat, 30 mg/kg, one hour after the administration
# Description: (§4) Test of Oral Administration
# (§5) A sample was dissolved or suspended in a 0.5% (w/v) methyl cellulose solution and the resulting solution or suspension was orally administered (10 ml/kg) to a 8 to 11 week-old rat (Wistar male rat (Nippon SLC Co., Ltd.)) which had been fasted overnight. After administration of the sample, the blood to which 1/10 part by weight of 3.13% (w/v) sodium citrate had been added was collected from the cervical vein. The rat was awakened except during the blood collection. Feeding was re-started 6 hours after the blood collection. From each blood sample, the plasma was separated by centrifugal separation and anti-FXa activity in the blood and prothrombin time extending action were measured.
# 2-1) Measurement of Anti-FXa Activity in the Plasma
# In a 96-well plate, 5 μl of the plasma was poured in portions, followed by the addition of 55 μl of a 8:1:2 mixture of 100 mM tris −200 mM sodium chloride −0.2% BSA (pH 7.4) buffer, water and 0.1 U/ml human Factor Xa solution (dissolved in and diluted with a measuring buffer) and 40 μl of 750 μM S-2222. After stirring for 10 seconds in a plate mixer, an increase (mOD/min) of the absorbance at 405 nm was measured at room temperature. The inhibitory ratio was calculated as follows:
# An inhibitory ratio (%)=(1−OD of sample÷OD of control on average relative to blood-collecting time of sample)×100
# plasma [9] = test: Oral administration test: coagulation extending action (prothrombin time); format: in vivo; settings: rat, 30 mg/kg, one hour after the administration
# Description: as §4, §5
# 2-2) Measurement of Coagulation Extending Action in Oral Administration (Measurement of Prothrombin Time)
# To 20 μl of the plasma, 40 μl of cynplastin (Organon Teknika/USA) were added and the coagulation time was measured. The ratio of the prothrombin time after the administration of the sample relative to the prothrombin time before the administration of the sample was designated as an index of the coagulation extending action.
# T1 sequence (P00742 235-488 limits assumed): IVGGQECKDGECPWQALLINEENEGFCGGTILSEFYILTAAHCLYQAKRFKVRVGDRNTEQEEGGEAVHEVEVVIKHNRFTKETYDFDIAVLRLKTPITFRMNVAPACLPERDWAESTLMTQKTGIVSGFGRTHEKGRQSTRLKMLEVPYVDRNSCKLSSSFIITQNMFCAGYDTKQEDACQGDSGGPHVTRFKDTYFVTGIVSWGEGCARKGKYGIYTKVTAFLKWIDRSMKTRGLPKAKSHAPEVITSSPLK
# T1 sequence (P00742 41-179 partner limits assumed): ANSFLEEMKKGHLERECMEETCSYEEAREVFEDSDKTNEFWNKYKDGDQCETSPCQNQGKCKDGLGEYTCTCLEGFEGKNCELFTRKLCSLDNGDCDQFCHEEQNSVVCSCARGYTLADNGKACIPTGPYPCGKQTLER
# Sequence of human Factor Xa (P00742 235-488 limits assumed): as the sequence (P00742 235-488 limits assumed) above
# Sequence of human Factor Xa (P00742 41-179 partner limits assumed): as the sequence (P00742 41-179 partner limits assumed) above
compound,measurement,setting,value
"O=C(c1ccc(-c2cccc[n+]2[O-])cc1)N1CCN(S(=O)(=O)c2ccc3cc(Cl)ccc3c2)CC1 [Example 19, 2-[4-[[4-[(6-Chloronaphthalen-2-yl)sulfonyl]piperazin-1-yl]carbonyl]phenyl]pyridine N-oxide]",IC50,human FXa [1],0.072 µM
same,IC50,human thrombin [2],1.9 µM
"CC1Cc2nc(C(=O)N3CCN(S(=O)(=O)c4ccc5cc(Cl)ccc5c4)CC3C(N)=O)sc2CN1.Cl (stereo not shown) [Example 95, 2-Carbamoyl-4-[(6-chloronaphthalen-2-yl)sulfonyl]-1-[(6-methyl-4,5,6,7-tetrahydrothiazolo[5,4-c]pyridin-2-yl)carbonyl]piperazine hydrochloride]",anti-FXa action in the plasma,[3],apparent anti-FXa action in the plasma was recognized
same,decrease in the number of the platelets,[3],suppressed
same,increase in the TAT concentration,[3],suppressed
C[N+]1([O-])CCc2nc(C(=O)N3CCN(S(=O)(=O)c4ccc5cc(Cl)ccc5c4)CC3)sc2C1 (stereo not shown) [Example 93],Ki,human FXa [4],0.0109 µM
same,Ki,human thrombin [5],3.3 µM
"2-[[4-[(6-Chloronaphthalen-2-yl)sulfonyl]piperazin-1-yl]carbonyl]-6,6-dimethyl-4,5,6,7-tetrahydrothiazolo[5,4-c]pyridinium iodide [Example 92]",IC50,human thrombin [6],≥ 200 µM
same,IC50,human FXa [7],0.0078 µM
same,CT2 (concentration at which the coagulation time of the plasma was increased twice),Plasma [8],0.35 µM
"Cl.O=C(C1CC=C(c2ccncc2)CC1)N1CCN(S(=O)(=O)c2ccc3cc(Cl)ccc3c2)CC1 (racemic) [Example 110, 1-[(6-Chloronaphthalen-2-yl)sulfonyl]-4-[[(1RS)-4-(pyridin-4-yl)-3-cyclohexene]carbonyl]piperazine hydrochloride]",anti-FXa activity in the plasma,human Factor Xa,70%
same,extension of the prothrombin time (ratio after/before administration),plasma [9],1.18 times
"O=C(c1ccc(-c2cc[n+]([O-])cc2)cc1)N1CCN(S(=O)(=O)c2ccc3cc(Cl)ccc3c2)CC1 [Example 6, 4-[4-[[4-[(6-Chloronaphthalen-2-yl)sulfonyl]piperazin-1-yl]carbonyl]phenyl]pyridine N-oxide]",IC50,human FXa [1],0.125 µM
